Test results from the supplement of paper PMC4862054.
“And” between values parts separate entries of the source, which are not always exact repeats. Equal entries are not always repeated.

What was measured:
CAL-148 [1] = settings: 72 h
How it was run: (§1)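 Compound dissolved in 5 µl medium was placed in 384-well plates before 20 µl of breast cancer cell suspension was added, and the plates were incubated for 72 h. Cells then received 2.5 µl CellTiter-Blue for 2 h at 37 °C, and fluorescence was read at 560/590 nm. EC50 values come from percent-inhibition dose-response fits that were censored at the highest concentration, with plates normalised to vehicle and a positive kill control and rows with a zero drug sensitivity score excluded.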

CAL-51 = settings: 72 h
How it was run: as §1

CAL-85-1 [2] = settings: 72 h
How it was run: as §1

DU-4475 [3] = settings: 72 h
How it was run: as §1

HDQ-P1 = settings: 72 h
How it was run: as §1

MDA-MB-453 = settings: 72 h
How it was run: as §1

CAL-85-1 [4] = settings: 72 h; remark: listed apart in the source
Method: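 Drug sensitivity and resistance testing (DSRT) of breast cancer cell lines in 384-well plates, 5 concentrations in 10-fold dilutions over a compound-specific 10,000-fold range. After 72 h, cytotoxicity was read by CellTox Green fluorescence and viability by CellTiter-Glo luminescence (multiplexed), normalised to DMSO and benzethonium chloride controls. EC50 is the inflection point of the fitted dose-response curve (bottom asymptote free, so it can be relative for partial curves) and is censored at the highest tested concentration. Rows with DSS 0 (no meaningful response) were excluded.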

HCC1143 = experiment: normalised viability (% of control), CellTiter-Blue; higher = more viable cells (about 100 = DMSO control); settings: incubation time: 72 h
How it was run: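 The reported figure is normalised viability at a single listed concentration of the series. Breast cancer cell lines (20 µl suspension) went onto 384-well plates holding compound in 5 µl medium for 72 h. CellTiter-Blue (2.5 µl, 2 h, 37 °C) was read by fluorescence at 560/590 nm, and each plate was scaled to vehicle at 100 and a positive kill control at 0.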

CAL-148 [5] = experiment: normalised response (% of control), CellTiter-Glo; higher = more viable cells (100 = DMSO, 0 = benzethonium chloride kill control); settings: incubation time: 72 h
How it was run: (§2)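 Breast cancer cell lines in 20 µl suspension were added to 384-well plates containing compound at 5 concentrations, spaced in 10-fold steps across a 10,000-fold range chosen for each compound, and incubated for 72 h. CellTox Green fluorescence was read at 485/520 nm, followed by CellTiter-Glo luminescence after 10 min at room temperature. Signals on each plate were normalised so that 0.1 % DMSO equals 100 and a positive kill control equals 0. Every value in the table is the normalised signal at one concentration of the series.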

DU-4475 [6] = experiment: as above; settings: incubation time: 72 h
How it was run: as §2

HCC1937 = experiment: as above; settings: incubation time: 72 h
How it was run: as §2

SK-BR-3 = experiment: as above; settings: incubation time: 72 h
How it was run: as §2

EC50, CellTiter-Blue viability (MDA-MB-453) [µM] | Compound | EC50, CellTiter-Blue viability (CAL-148 [1]) [µM] | EC50, CellTiter-Blue viability (CAL-51) [µM] | EC50, CellTiter-Blue viability (CAL-85-1 [2]) [µM] | EC50, CellTiter-Blue viability (DU-4475 [3]) [µM] | EC50, CellTiter-Blue viability (HDQ-P1) [µM] | EC50, CellTox Green (CAL-85-1 [4]) [µM] | normalised viability (HCC1143; 100 nM) | other results
0.0728 | COc1ccc(-c2cc3c(C)nc(N)nc3n([C@H]3CC[C@H](OCCO)CC3)c2=O)cn1 | 0.246 | 0.14 | 0.301 | 0.61 | 0.0669 | 4.09 | 92.8% | –
– | Cc1cccc(-c2nn3c(c2-c2ccnc4ccc(C(N)=O)cc24)CCC3)n1 | – | – | – | – | – | – | – | normalised viability (HCC1143; 10 nM): 91%
0.00436 | Cn1cc(CNCC2CCN(c3ncc(C(=O)NO)cn3)CC2)c2ccccc21 | 0.0119 | 0.0621 | 0.0172 | 0.0143 | 0.0182 | – | – | normalised viability (HCC1143; 10 nM): 64.8%
4.98 | O=C(NC[C@H](O)CO)c1ccncc1Nc1ccc(I)cc1F | 0.00985 | 0.663 | 1.66 | 0.0117 | 0.161 | – | 66% | –
– | Nc1nc(=O)c2c([nH]1)NCC(CNc1ccc(C(=O)N[C@@H](CCC(=O)O)C(=O)O)cc1)N2C=O (mixture of isomers) [Folinic acid] | – | – | – | – | – | – | – | normalised viability (HCC1143; 9.9 nM): 86.1%
– | CC/C(=C(\c1ccc(O)cc1)c1ccc(OCCN(C)C)cc1)c1ccccc1 [4-hydroxytamoxifen] | – | – | – | – | – | 7.77 | – | –
0.245 | O=C(Nc1c[nH]nc1-c1nc2ccc(CN3CCOCC3)cc2[nH]1)NC1CC1 [AT9283] | 1.37 | 0.555 | 0.901 | 0.109 | 0.771 | – | 72.8% | –
0.31 | COc1cc(CCc2cc(NC(=O)c3ccc(N4CC(C)NC(C)C4)cc3)n[nH]2)cc(OC)c1 (centres undefined) [AZD4547] | 0.632 | 0.548 | 0.529 | 0.536 | – | – | – | normalised viability (HCC1143; 10 nM): 86.9%
– | CC(=O)OC[C@H]1O[C@@H]([S-])[C@H](OC(C)=O)[C@@H](OC(C)=O)[C@@H]1OC(C)=O.CCP(CC)CC.[Au+] [Auranofin] | – | – | – | – | – | 0.917 | – | –
– | CCC/C=C/C=C/C(=O)O[C@H]1/C(=C/C(=O)OC)C[C@H]2C[C@H]([C@@H](C)O)OC(=O)C[C@H](O)C[C@@H]3C[C@H](OC(C)=O)C(C)(C)[C@](O)(C[C@@H]4C/C(=C/C(=O)OC)C[C@H](/C=C/C(C)(C)[C@]1(O)O2)O4)O3 [Bryostatin 1] | > 0.1 | – | > 0.1 | – | – | – | – | normalised viability (HCC1143; 1 nM): 81.2%
0.0409 | CO[C@@H](C(=O)N1Cc2[nH]nc(NC(=O)c3ccc(N4CCN(C)CC4)cc3)c2C1)c1ccccc1 [Danusertib] | 0.0216 | 0.348 | 0.435 | 0.538 | 0.427 | – | 87.4% | –
– | Cc1nc(Nc2ncc(C(=O)Nc3c(C)cccc3Cl)s2)cc(N2CCN(CCO)CC2)n1 [Dasatinib] | – | 0.0222 | 0.0839 | – | 0.0124 | 0.108 | – | –
> 10 | O=S(=O)(c1cccc2cnccc12)N1CCCNCC1 [Fasudil] | – | – | – | – | – | – | 87.2% | –
0.212 | CS(=O)(=O)N1CCN(Cc2cc3nc(-c4cccc5[nH]ncc45)nc(N4CCOCC4)c3s2)CC1 [GDC-0941] | 0.96 | 0.569 | 1.07 | 5.65 | 0.156 | – | 81.9% | –
0.0989 | Cc1c(CN2CCN(C(=O)[C@H](C)O)CC2)sc2c(N3CCOCC3)nc(-c3cnc(N)nc3)nc12 [GDC-0980] | 0.306 | 0.198 | 0.347 | 0.734 | 0.139 | 3.2 | 71.5% | –
– | Nc1cccc2c1CN(C1CCC(=O)NC1=O)C2=O (centres undefined) [Lenalidomide] | – | – | – | – | – | – | 81.8% and 68% | –
0.588 | Nc1ccccc1NC(=O)c1ccc(CNc2nccc(-c3cccnc3)n2)cc1 [Mocetinostat] | 1.79 | 3.05 | 1.53 | 0.757 | 9.49 | 2.38 | 81.5% | –

EC50, CellTiter-Blue viability (MDA-MB-453) [µM] | Compound | EC50, CellTiter-Blue viability (CAL-148 [1]) [µM] | EC50, CellTiter-Blue viability (CAL-51) [µM] | EC50, CellTiter-Blue viability (CAL-85-1 [2]) [µM] | EC50, CellTiter-Blue viability (DU-4475 [3]) [µM] | EC50, CellTiter-Blue viability (HDQ-P1) [µM] | EC50, CellTox Green (CAL-85-1 [4]) [µM] | normalised viability (HCC1143; 100 nM) | other results
– | COc1nc(N)nc2c1ncn2[C@@H]1O[C@H](CO)[C@@H](O)[C@@H]1O [Nelarabine] (10000 nM) | – | – | – | – | – | – | – | normalised response (CAL-148 [5]): 78.7%; normalised response (DU-4475 [6]): 97.8%; normalised response (HCC1937): 91.7%; normalised response (SK-BR-3): 76.6%
0.608 | Cc1ccc(Nc2nccc(N(C)c3ccc4c(C)n(C)nc4c3)n2)cc1S(N)(=O)=O [Pazopanib] | – | – | – | – | > 10 | > 10 | 85.8% | –
– | Cc1ccc(Nc2nccc(N(C)c3ccc4c(C)n(C)nc4c3)n2)cc1S(N)(=O)=O [Pazopanib] (10000 nM) | – | – | – | – | – | – | – | normalised response (CAL-148 [5]): 106%; normalised response (DU-4475 [6]): 104%; normalised response (HCC1937): 102%; normalised response (SK-BR-3): 105%
– | CS(=O)(=O)N1CCN(Cc2cc3nc(-c4cccc5[nH]ncc45)nc(N4CCOCC4)c3s2)CC1 [Pictilisib] | – | – | – | – | – | 2.15 | – | –
– | O=C(NC[C@H](O)CO)c1ccncc1Nc1ccc(I)cc1F [Pimasertib] | – | – | – | – | – | 1.34 | – | –
6.14 | O=C(CCBr)N1CCN(C(=O)CCBr)CC1 [Pipobroman] | – | – | – | – | – | – | 87.8% | –
– | O=C(CCBr)N1CCN(C(=O)CCBr)CC1 [Pipobroman] (10000 nM) | – | – | – | – | – | – | – | normalised response (CAL-148 [5]): 101%; normalised response (DU-4475 [6]): 101%; normalised response (HCC1937): 98.2%; normalised response (SK-BR-3): 108%
– | c1cc(CN2CCCNCCNCCCNCC2)ccc1CN1CCCNCCNCCCNCC1 [Plerixafor] | – | – | – | – | – | – | – | normalised viability (HCC1143; 25 nM): 83.4%
0.171 | C[C@]12C=CC(=O)C=C1CC[C@@H]1[C@@H]2[C@@H](O)C[C@@]2(C)[C@H]1CC[C@]2(O)C(=O)CO [Prednisolone] | – | – | – | – | – | – | 97.8% | –
– | C[C@]12C=CC(=O)C=C1CC[C@@H]1[C@@H]2[C@@H](O)C[C@@]2(C)[C@H]1CC[C@]2(O)C(=O)CO [Prednisolone] (10000 nM) | – | – | – | – | – | – | – | normalised response (CAL-148 [5]): 111%; normalised response (DU-4475 [6]): 104%; normalised response (HCC1937): 101%; normalised response (SK-BR-3): 96.7%
– | Cn1cc(CNCC2CCN(c3ncc(C(=O)NO)cn3)CC2)c2ccccc21 [Quisinostat] | – | – | – | – | – | 0.0185 | – | –
– | CNC(=O)c1cc(Oc2ccc(NC(=O)Nc3ccc(Cl)c(C(F)(F)F)c3)cc2)ccn1 [Sorafenib] | – | – | 0.159 | – | – | – | – | normalised viability (HCC1143; 10 nM): 101% and 80.6%
– | CNC(=O)c1cc(Oc2ccc(NC(=O)Nc3ccc(Cl)c(C(F)(F)F)c3)cc2)ccn1 [Sorafenib] (1000 nM) | – | – | – | – | – | – | – | normalised response (CAL-148 [5]): 113%; normalised response (DU-4475 [6]): 98.3%; normalised response (HCC1937): 102%; normalised response (SK-BR-3): 96.9%
– | CCN(CC)CCNC(=O)c1c(C)[nH]c(/C=C2\C(=O)Nc3ccc(F)cc32)c1C [Sunitinib] | – | – | – | – | 0.721 | – | – | –
– | CCN(CC)CCNC(=O)c1c(C)[nH]c(/C=C2\C(=O)Nc3ccc(F)cc32)c1C [Sunitinib] (1000 nM) | – | – | – | – | – | – | – | normalised response (CAL-148 [5]): 113%; normalised response (DU-4475 [6]): 94.2%; normalised response (HCC1937): 91.7%; normalised response (SK-BR-3): 105%
0.457 | CC[C@@]1(O)C(=O)OCc2c1cc1n(c2=O)Cc2cc3c(CN(C)C)c(O)ccc3nc2-1 [Topotecan] | 0.0637 | 0.362 | 0.613 | 0.118 | > 1 | 0.913 | – | normalised viability (HCC1143; 10 nM): 79.7%

Compound | EC50, CellTiter-Blue viability (MDA-MB-453) [µM] | EC50, CellTiter-Blue viability (CAL-148 [1]) [µM] | EC50, CellTiter-Blue viability (CAL-51) [µM] | EC50, CellTiter-Blue viability (CAL-85-1 [2]) [µM] | EC50, CellTiter-Blue viability (DU-4475 [3]) [µM] | EC50, CellTiter-Blue viability (HDQ-P1) [µM] | EC50, CellTox Green (CAL-85-1 [4]) [µM] | normalised viability (HCC1143; 100 nM) | other results
C[C@]12O[C@H](C[C@]1(O)CO)n1c3ccccc3c3c4c(c5c6ccccc6n2c5c31)CNC4=O [Lestaurtinib] | 0.174 | – | 0.33 | 0.284 | 0.186 | – | 0.356 | – | normalised viability (HCC1143; 10 nM): 113%
O=C1c2c(O)ccc(O)c2C(=O)c2c(NCCNCCO)ccc(NCCNCCO)c21 [Mitoxantrone] | 0.539 | 0.0262 | 0.0107 | 0.182 | 0.00891 | 0.0586 | – | – | normalised viability (HCC1143; 10 nM): 66.9%
